According to paper PMC5218480 (PLoS ONE, 2017):

Tested on: MV-4-11 cells
Experiment: Gene expression microarray analysis (Affymetrix PrimeView) and GSEA
Type: cell-based, human
Set-up: RFU PODN (11730768_x_at) / Fold change /veh PODN (11730768_x_at) / RFU LINC00158 (11744669_a_at) / Fold change /veh LINC00158 (11744669_a_at) / RFU DUSP10 (11751237_a_at) / Fold change /veh DUSP10 (11751237_a_at) / RFU ID3 (11757404_x_at) / Fold change /veh ID3 (11757404_x_at) / RFU PLEKHG5 (11737974_s_at) / Fold change /veh PLEKHG5 (11737974_s_at) / RFU LRRC4B (11730491_at) / Fold change /veh LRRC4B (11730491_at) / RFU GIMAP4 (11747438_a_at) / Fold change /veh GIMAP4 (11747438_a_at) / RFU KRT8 (11758183_x_at) / Fold change /veh KRT8 (11758183_x_at) / RFU CNN1 (11734310_a_at) / Fold change /veh CNN1 (11734310_a_at) / RFU VPS37D (11726825_at) / Fold change /veh VPS37D (11726825_at) / RFU C10orf10 (11716522_x_at) / Fold change /veh C10orf10 (11716522_x_at) / RFU KIR2DL2 /// KIR2DL4 /// KIR2DL5A /// KIR2DL5B /// KIR2DS1 /// KIR2DS2 /// KIR2DS3 /// KIR2DS4 /// KIR3DL3 /// KIR3DL3 /// KIR3DS1 (11738374_at) / Fold change /veh KIR2DL2 /// KIR2DL4 /// KIR2DL5A /// KIR2DL5B /// KIR2DS1 /// KIR2DS2 /// KIR2DS3 /// KIR2DS4 /// KIR3DL3 /// KIR3DL3 /// KIR3DS1 (11738374_at) / RFU C1QL1 (11718748_at) / Fold change /veh C1QL1 (11718748_at) / RFU TMPRSS4 (11747572_a_at) / Fold change /veh TMPRSS4 (11747572_a_at) / RFU HAMP (11756126_x_at) / Fold change /veh HAMP (11756126_x_at) / RFU RNFT2 (11725882_a_at) / Fold change /veh RNFT2 (11725882_a_at) / RFU NR4A2 (11747474_a_at) / Fold change /veh NR4A2 (11747474_a_at) / RFU ABCC12 (11746883_a_at) / Fold change /veh ABCC12 (11746883_a_at) / RFU TMEM136 (11760407_x_at) / Fold change /veh TMEM136 (11760407_x_at) / RFU CLDN22 /// WWC2 (11732394_at) / Fold change /veh CLDN22 /// WWC2 (11732394_at) / RFU HLA-DPB1 (11760878_x_at) / Fold change /veh HLA-DPB1 (11760878_x_at) / RFU SPINT1 (11716480_a_at) / Fold change /veh SPINT1 (11716480_a_at) / RFU GAP43 (11754022_s_at) / Fold change /veh GAP43 (11754022_s_at) / RFU A4GNT (11735810_at) / Fold change /veh A4GNT (11735810_at) / RFU PRB3 (11715151_x_at) / Fold change /veh PRB3 (11715151_x_at) / RFU TUBB4B (11761932_at) / Fold change /veh TUBB4B (11761932_at) / RFU CAPN14 (11732068_a_at) / Fold change /veh CAPN14 (11732068_a_at) / RFU TMCC2 (11721928_a_at) / Fold change /veh TMCC2 (11721928_a_at) / RFU IRGQ (11745062_a_at) / Fold change /veh IRGQ (11745062_a_at) / RFU FAM174B (11720279_a_at) / Fold change /veh FAM174B (11720279_a_at) / RFU TMPRSS4 (11748680_a_at) / Fold change /veh TMPRSS4 (11748680_a_at) / RFU FAM212B (11763350_a_at) / Fold change /veh FAM212B (11763350_a_at) / RFU PLEKHG5 (11743358_a_at) / Fold change /veh PLEKHG5 (11743358_a_at) / RFU ZSCAN30 (11745921_a_at) / Fold change /veh ZSCAN30 (11745921_a_at) / RFU CMKLR1 (11741424_a_at) / Fold change /veh CMKLR1 (11741424_a_at) / RFU LOC101060620 /// MAPK8IP1 (11723275_at) / Fold change /veh LOC101060620 /// MAPK8IP1 (11723275_at) / RFU SPTSSB (11747773_x_at) / Fold change /veh SPTSSB (11747773_x_at) / RFU PRSS12 (11739890_at) / Fold change /veh PRSS12 (11739890_at) / RFU BIN1 (11741810_x_at) / Fold change /veh BIN1 (11741810_x_at) / RFU WNT11 (11732464_a_at) / Fold change /veh WNT11 (11732464_a_at) / RFU C10orf10 (11716521_a_at) / Fold change /veh C10orf10 (11716521_a_at) / RFU C5orf56 (11738089_at) / Fold change /veh C5orf56 (11738089_at) / RFU CYB561 (11721691_x_at) / Fold change /veh CYB561 (11721691_x_at) / RFU ANKRD19P (11752326_a_at) / Fold change /veh ANKRD19P (11752326_a_at) / RFU OR2T12 /// OR2T33 /// OR2T8 (11738714_s_at) / Fold change /veh OR2T12 /// OR2T33 /// OR2T8 (11738714_s_at) / RFU VCAN (11748164_a_at) / Fold change /veh VCAN (11748164_a_at) / RFU JSRP1 (11732532_at) / Fold change /veh JSRP1 (11732532_at) / RFU KRTAP10-11 (11738290_x_at) / Fold change /veh KRTAP10-11 (11738290_x_at) / RFU MYO3A (11730013_a_at) / Fold change /veh MYO3A (11730013_a_at) / RFU EBF3 (11725865_a_at) / Fold change /veh EBF3 (11725865_a_at) / RFU CAMK2N1 (11719241_x_at) / Fold change /veh CAMK2N1 (11719241_x_at) / RFU C5orf56 (11738088_a_at) / Fold change /veh C5orf56 (11738088_a_at) / RFU OLFML3 (11715873_a_at) / Fold change /veh OLFML3 (11715873_a_at) / RFU LOC100653217 /// NTM (11731650_a_at) / Fold change /veh LOC100653217 /// NTM (11731650_a_at) / RFU MAPK11 (11762145_a_at) / Fold change /veh MAPK11 (11762145_a_at) / RFU FIZ1 (11724087_x_at) / Fold change /veh FIZ1 (11724087_x_at) / RFU OASL (11726364_x_at) / Fold change /veh OASL (11726364_x_at) / RFU SOX15 (11748057_x_at) / Fold change /veh SOX15 (11748057_x_at) / RFU CD79A (11719716_a_at) / Fold change /veh CD79A (11719716_a_at) / RFU HIST1H1D (11736915_at) / Fold change /veh HIST1H1D (11736915_at) / RFU CASKIN2 (11723855_a_at) / Fold change /veh CASKIN2 (11723855_a_at) / RFU LOC730098 (11760151_x_at) / Fold change /veh LOC730098 (11760151_x_at) / RFU OR4N2 (11742367_at) / Fold change /veh OR4N2 (11742367_at) / RFU PRRT2 (11749266_a_at) / Fold change /veh PRRT2 (11749266_a_at) / RFU SNX32 (11753110_a_at) / Fold change /veh SNX32 (11753110_a_at) / RFU CDHR5 (11726645_a_at) / Fold change /veh CDHR5 (11726645_a_at) / RFU RCAN1 (11760418_a_at) / Fold change /veh RCAN1 (11760418_a_at) / RFU FAM167A (11723789_a_at) / Fold change /veh FAM167A (11723789_a_at) / RFU FAM26E (11764081_at) / Fold change /veh FAM26E (11764081_at) / RFU ISYNA1 (11749810_s_at) / Fold change /veh ISYNA1 (11749810_s_at) / RFU ACY1 (11761880_at) / Fold change /veh ACY1 (11761880_at) / RFU 11764098_at / Fold change /veh 11764098_at / RFU SAMD14 (11745864_x_at) / Fold change /veh SAMD14 (11745864_x_at) / RFU NPB (11741838_a_at) / Fold change /veh NPB (11741838_a_at) / RFU TMPRSS6 (11731388_a_at) / Fold change /veh TMPRSS6 (11731388_a_at) / RFU KRTAP10-2 (11738614_at) / Fold change /veh KRTAP10-2 (11738614_at) / RFU ARHGAP8 /// PRR5-ARHGAP8 (11727945_x_at) / Fold change /veh ARHGAP8 /// PRR5-ARHGAP8 (11727945_x_at) / RFU KRTAP5-7 /// NADSYN1 (11734609_at) / Fold change /veh KRTAP5-7 /// NADSYN1 (11734609_at) / RFU RASL12 (11751679_a_at) / Fold change /veh RASL12 (11751679_a_at) / RFU CDKN2B (11736163_a_at) / Fold change /veh CDKN2B (11736163_a_at) / RFU PRF1 (11729649_at) / Fold change /veh PRF1 (11729649_at) / RFU, ZNF638 /// ZNF638-IT1 / Fold change vs veh, ZNF638 /// ZNF638-IT1 / RFU, PANK3 / Fold change vs veh, PANK3 / RFU, SH3YL1 / Fold change vs veh, SH3YL1 / RFU, ZEB2 / Fold change vs veh, ZEB2 / RFU, NRIP1 / Fold change vs veh, NRIP1 / RFU, PTTG1IP / Fold change vs veh, PTTG1IP / RFU, CAPN2 / Fold change vs veh, CAPN2 / RFU, MED14 / Fold change vs veh, MED14 / RFU, SNORA58 / Fold change vs veh, SNORA58 / RFU, C1orf63 / Fold change vs veh, C1orf63 / RFU, LRRFIP1 / Fold change vs veh, LRRFIP1 / RFU, NDUFAF7 / Fold change vs veh, NDUFAF7 / RFU, SLC12A2 / Fold change vs veh, SLC12A2 / RFU, IBTK / Fold change vs veh, IBTK / RFU, ESF1 / Fold change vs veh, ESF1 / Fold change vs veh, TMEM50B / RFU, TAOK1 / Fold change vs veh, TAOK1 / RFU, ACBD3 / Fold change vs veh, ACBD3 / RFU, TMA16 / Fold change vs veh, TMA16 / RFU, RWDD3 / Fold change vs veh, RWDD3 / RFU, BCAT1 / Fold change vs veh, BCAT1 / RFU, EDEM3 / Fold change vs veh, EDEM3 / RFU, TMEM33 / Fold change vs veh, TMEM33 / RFU, WDR75 / Fold change vs veh, WDR75 / RFU, AHCTF1 / Fold change vs veh, AHCTF1 / RFU, TFRC / Fold change vs veh, TFRC / RFU, ZDHHC17 / Fold change vs veh, ZDHHC17 / RFU, NOM1 / Fold change vs veh, NOM1 / RFU, ARL8B / Fold change vs veh, ARL8B / RFU, ZBTB11 / Fold change vs veh, ZBTB11 / RFU, TAMM41 / Fold change vs veh, TAMM41 / RFU, KIAA1704 /// LOC100996395 / Fold change vs veh, KIAA1704 /// LOC100996395 / RFU, ING1 / Fold change vs veh, ING1 / RFU, TRMT61B / Fold change vs veh, TRMT61B / RFU, FUBP3 / Fold change vs veh, FUBP3 / RFU, TP53 / Fold change vs veh, TP53 / RFU, TNKS2 / Fold change vs veh, TNKS2 / RFU, ZFP14 / Fold change vs veh, ZFP14 / RFU, ACTR2 / Fold change vs veh, ACTR2 / RFU, PPP3R1 / Fold change vs veh, PPP3R1 / RFU, PIK3R1 / Fold change vs veh, PIK3R1 / RFU, HNRNPA1 / Fold change vs veh, HNRNPA1 / RFU, RNF170 / Fold change vs veh, RNF170 / RFU, ZNF28 / Fold change vs veh, ZNF28 / RFU, RNGTT / Fold change vs veh, RNGTT / RFU, OGT / Fold change vs veh, OGT / RFU, BRD1 / Fold change vs veh, BRD1 / RFU, MARS / Fold change vs veh, MARS / RFU, ZNF655 / Fold change vs veh, ZNF655 / RFU, FAHD1 / Fold change vs veh, FAHD1 / RFU, BDP1 / Fold change vs veh, BDP1 / RFU, LRRCC1 / Fold change vs veh, LRRCC1 / RFU, ARID1A / Fold change vs veh, ARID1A / RFU, ZNF146 / Fold change vs veh, ZNF146 / RFU, ZNF330 / Fold change vs veh, ZNF330 / RFU, GPN3 / Fold change vs veh, GPN3 / RFU, C9orf123 / Fold change vs veh, C9orf123 / RFU, N4BP2L2 / Fold change vs veh, N4BP2L2 / RFU, ARFIP1 / Fold change vs veh, ARFIP1 / RFU, FAM179B / Fold change vs veh, FAM179B / RFU, BCL10 / Fold change vs veh, BCL10 / RFU, UHRF1BP1L / Fold change vs veh, UHRF1BP1L / RFU, BET1 / Fold change vs veh, BET1 / RFU, CNOT2 / Fold change vs veh, CNOT2 / RFU, ZNF268 / Fold change vs veh, ZNF268 / Fold change vs veh, ZNF507 / RFU, DGCR2 / Fold change vs veh, DGCR2 / RFU, WDSUB1 / Fold change vs veh, WDSUB1 / Fold change vs veh, HSP90B1 /// MIR3652 / RFU, ADSS / Fold change vs veh, ADSS / RFU, GK / Fold change vs veh, GK / RFU, ZNF148 / Fold change vs veh, ZNF148 / RFU, TAF9 / Fold change vs veh, TAF9 / RFU, SLC1A5 / Fold change vs veh, SLC1A5 / RFU, SLMO2 / Fold change vs veh, SLMO2 / RFU, ABCC4 / Fold change vs veh, ABCC4 / RFU, LOC101060439 /// RAP1B / Fold change vs veh, LOC101060439 /// RAP1B / RFU, RFX7 / Fold change vs veh, RFX7 / RFU, GTPBP10 / Fold change vs veh, GTPBP10 / RFU, CNEP1R1 / Fold change vs veh, CNEP1R1 / RFU, BIVM-ERCC5 /// ERCC5 / Fold change vs veh, BIVM-ERCC5 /// ERCC5 / RFU, ILF3 / Fold change vs veh, ILF3 / RFU 11762660_at / Fold change /veh 11762660_at / RFU VCAN (11757783_s_at) / Fold change /veh VCAN (11757783_s_at) / RFU DDX43 (11728927_at) / Fold change /veh DDX43 (11728927_at) / RFU KRT8 (11758188_x_at) / Fold change /veh KRT8 (11758188_x_at) / RFU NKD1 (11759106_at) / Fold change /veh NKD1 (11759106_at) / RFU SRD5A1 (11742802_a_at) / Fold change /veh SRD5A1 (11742802_a_at) / RFU TPSAB1 /// TPSB2 (11721975_s_at) / Fold change /veh TPSAB1 /// TPSB2 (11721975_s_at) / RFU GSTM3 (11746129_a_at) / Fold change /veh GSTM3 (11746129_a_at) / RFU IL23R (11737362_x_at) / Fold change /veh IL23R (11737362_x_at) / RFU TMEM51 (11727254_a_at) / Fold change /veh TMEM51 (11727254_a_at) / RFU PIWIL2 (11732686_x_at) / Fold change /veh PIWIL2 (11732686_x_at) / RFU ORM1 (11744905_x_at) / Fold change /veh ORM1 (11744905_x_at) / RFU CCDC152 (11743942_at) / Fold change /veh CCDC152 (11743942_at) / RFU ECM1 (11717891_a_at) / Fold change /veh ECM1 (11717891_a_at) / RFU IL23R (11748794_a_at) / Fold change /veh IL23R (11748794_a_at) / RFU TNFAIP8L3 (11732012_x_at) / Fold change /veh TNFAIP8L3 (11732012_x_at) / RFU MBOAT4 (11741988_at) / Fold change /veh MBOAT4 (11741988_at) / RFU 11764193_at / Fold change /veh 11764193_at / RFU TMEM53 (11763286_at) / Fold change /veh TMEM53 (11763286_at) / RFU MAGEB2 (11727129_at) / Fold change /veh MAGEB2 (11727129_at) / RFU TMEM200A (11744735_a_at) / Fold change /veh TMEM200A (11744735_a_at) / RFU CCDC152 (11751479_a_at) / Fold change /veh CCDC152 (11751479_a_at) / RFU FAM211A (11726209_a_at) / Fold change /veh FAM211A (11726209_a_at) / RFU RGS16 (11746705_a_at) / Fold change /veh RGS16 (11746705_a_at) / RFU VCAN (11755009_s_at) / Fold change /veh VCAN (11755009_s_at) / RFU RHOB (11743442_s_at) / Fold change /veh RHOB (11743442_s_at) / RFU RGS16 (11720943_a_at) / Fold change /veh RGS16 (11720943_a_at) / RFU RGS16 (11720944_at) / Fold change /veh RGS16 (11720944_at) / RFU, VPS4B / Fold change vs veh, VPS4B / RFU, CREB1 / Fold change vs veh, CREB1 / RFU, DNAJC13 / Fold change vs veh, DNAJC13 / RFU, GNAQ / Fold change vs veh, GNAQ / RFU, CDK5R1 / Fold change vs veh, CDK5R1 / RFU, ZRANB3 / Fold change vs veh, ZRANB3 / RFU, CUL4A / Fold change vs veh, CUL4A / RFU, CCNY / Fold change vs veh, CCNY / RFU, UFL1 / Fold change vs veh, UFL1 / RFU, COG3 / Fold change vs veh, COG3 / RFU, DIAPH2 / Fold change vs veh, DIAPH2 / RFU, SKA2 / Fold change vs veh, SKA2 / RFU, AFF3 / Fold change vs veh, AFF3 / RFU, LMF1 / Fold change vs veh, LMF1 / RFU, IPO11 / Fold change vs veh, IPO11 / RFU, DFFB / Fold change vs veh, DFFB / RFU, FOXP1 / Fold change vs veh, FOXP1 / RFU, CARD8 / Fold change vs veh, CARD8 / RFU, STRN3 / Fold change vs veh, STRN3 / RFU, ADK / Fold change vs veh, ADK / RFU, RASSF2 / Fold change vs veh, RASSF2 / RFU, WIPF1 / Fold change vs veh, WIPF1 / RFU, LARP1B / Fold change vs veh, LARP1B / RFU, RASA1 / Fold change vs veh, RASA1 / RFU, RB1 / Fold change vs veh, RB1 / RFU, PPFIA1 / Fold change vs veh, PPFIA1 / RFU, MAT2A / Fold change vs veh, MAT2A / RFU, CCT5 / Fold change vs veh, CCT5 / RFU, WDR92 / Fold change vs veh, WDR92 / RFU, CUX1 / Fold change vs veh, CUX1 / RFU, TTC7A / Fold change vs veh, TTC7A / RFU, TMEM135 / Fold change vs veh, TMEM135 / RFU, DEPTOR / Fold change vs veh, DEPTOR / RFU, CPM / Fold change vs veh, CPM / RFU, DNAJB6 / Fold change vs veh, DNAJB6 / RFU, CACNA2D3 / Fold change vs veh, CACNA2D3 / RFU, DTX4 / Fold change vs veh, DTX4 / RFU, TFCP2 / Fold change vs veh, TFCP2 / RFU, GMCL1 /// GMCL1P1 / Fold change vs veh, GMCL1 /// GMCL1P1 / RFU, AEBP2 / Fold change vs veh, AEBP2 / RFU, SNHG1 /// SNORD22 /// SNORD25 /// SNORD26 /// SNORD27 /// SNORD28 /// SNORD29 /// SNORD31 / Fold change vs veh, SNHG1 /// SNORD22 /// SNORD25 /// SNORD26 /// SNORD27 /// SNORD28 /// SNORD29 /// SNORD31 / Fold change (Aza/veh), C12orf56 (ProbeSet 11735607_a_at) / Fold change (ACY-1035/veh), C12orf56 (ProbeSet 11735607_a_at) / Fold change (Aza/veh), FGFR1OP (ProbeSet 11751329_s_at) / Fold change (ACY-1035/veh), FGFR1OP (ProbeSet 11751329_s_at) / Fold change (Aza/veh), VPS36 (ProbeSet 11739960_a_at) / Fold change (ACY-1035/veh), VPS36 (ProbeSet 11739960_a_at) / RFU SYPL1 (11715823_x_at) / Fold change /veh SYPL1 (11715823_x_at) / RFU IGFBP7 (11715501_s_at) / Fold change /veh IGFBP7 (11715501_s_at) / RFU REEP3 (11722064_at) / Fold change /veh REEP3 (11722064_at) / RFU IGLL1 (11728026_x_at) / Fold change /veh IGLL1 (11728026_x_at): dose or concentration left out as unconfirmed
Conditions: ProbeSet 11726661_s_at; LIST B

Nc1ccc(-c2cccs2)cc1NC(=O)c1ccc2c(c1)cc(C1CC1)n2CCN1CCOCC1 [ACY-1035]
RFU, GPN3: 242.51 RFU
